Assay results as given in publication PMC5357725, “Global update on the susceptibility of human influenza viruses to neuraminidase inhibitors, 2014–2015” (Antiviral Research, 2016).

Tests used:
[1] = system: B/Victoria-lineage neuraminidase (NA); format: biochemical, influenza B/Victoria-lineage virus
[2] = system: B/Yamagata-lineage neuraminidase (NA); format: biochemical, influenza B/Yamagata-lineage virus

[H]/N=C(\N)N[C@H]1C=C(C(=O)O)O[C@@H]([C@H](OC)[C@H](O)CO)[C@@H]1NC(C)=O [Laninamivir, laninamivir]
inhibition class (NI, RI, HRI) [1]: NI (key: NI: B viruses <5-fold; RI: B viruses 5- to 50-fold; HRI: B viruses >50-fold) | inhibition class (NI, RI, HRI) [2]: NI (key: NI: B viruses <5-fold; RI: B viruses 5- to 50-fold; HRI: B viruses >50-fold)

CC(=O)N[C@H]1[C@H]([C@H](O)[C@H](O)CO)OC(C(=O)O)=C[C@@H]1N=C(N)N [Zanamivir, zanamivir]
inhibition class (NI, RI, HRI) [1]: NI (key: NI: B viruses <5-fold; RI: B viruses 5- to 50-fold; HRI: B viruses >50-fold)
